According to patent US20230310540A1, “PEPTIDE COMPOSITIONS AND METHODS OF USE THEREOF” (priority 2020, published 2023):
≈ marks a conversion by molar mass, not a printed value. Like-named read-outs stand apart in the source and are kept apart here. Square brackets hold non-standard residues; d marks the D form. Peptide text beside a SMILES is read from it. βAla = NCCC(=O)O

What was measured:
[1] = system: Pseudomonas aeruginosa (CF mucoid and non-mucoid); assay: Broth dilution MIC against P. aeruginosa isolates from cystic fibrosis patients; assay type: cell-based
[2] = system: Acinetobacter baumannii (PDR); assay: Broth dilution MIC against pan drug-resistant A. baumannii isolate; assay type: cell-based; details: isolate AB (PDR)
[3] = system: Methicillin-resistant Staphylococcus aureus (SAP400); assay: Broth dilution MIC against MRSA isolate; assay type: cell-based
[4] = system: Klebsiella pneumoniae clinical isolates
[5] = system: WI-38 human fibroblast cells; assay: SYTOX Green cytotoxicity assay; assay type: cell-based
Protocol: Peptide variants of D-CONGA (SEQ ID NO: 1) were tested for activity against E. coli, K. pneumoniae, and S. aureus. Minimum Inhibitory Concentrations (MIC) were measured in 96-well plates by broth dilution. […] Following 1 hr. incubation, bacteria in growth media were added and the plates were incubated overnight at 37° C. Sterilized, wells were identified to determine MIC. […] The value for 100% hemolysis was established by treatment with the detergent Triton-X100. Toxicity was measured by incubating serially diluted peptide with WI38 human fibroblast cells in the presence of SYTOX Green, a DNA binding dye that reports on cell death by membrane permeabilization. The peptide concentration that gives 50% cytotoxicity by relative SYTOX Green fluorescence, is denoted EC50. WI-38 cells were grown to confluency in T-75 flasks in complete DMEM (with 15% FBS, plus antibiotics and non-essential amino acids). The day prior to cytotoxicity experiments, cells were trypsinized, removed from the flask, and pelleted. Cells were resuspended in complete DMEM and the cell count was obtained using a cell counter. The cells were then seeded at a density of 10,000 cells/well in a 96-well tissue-culture plate. […] To perform the cytotoxicity assay, media from wells of overnight cell culture plate was removed, washed once with PBS and treated with 50 μl of the peptide and SYTOX™ Green mixture. The plate was read for fluorescence, every 5 minutes, for an hour at the excitation wavelength of 385 nm and emission wavelength of 530 nm. MelP5, a potent MPP, that causes 100% SYTOX™ Green entry into the cells was used as a positive control to normalize the cytotoxicity of peptides tested. MIC values were reported in μM peptide against gram-negative E. coli (EC), P. aeruginosa (PA), and gram-positive S. aureus (SA). […] The column marked “EC 50” contains the concentration of peptide that kills 50% of WI-38 human fibroblast cells assayed by entry of SYTOX™ Green DNA binding dye.

[6] = system: E. coli; assay type: cell-based; details: for MIC, E. coli, No RBC / MIC, E. coli, 10^9 cells/ml RBC: Table 2; for MIC, E. coli, 10^9 cells/ml RBC: with 10^9 human RBC/ml; for MIC in Broth Dilution, E. coli, RBC −: absence of RBC; for MIC in Broth Dilution, E. coli, RBC − / MIC in Broth Dilution, E. coli, RBC +: Table 3; for MIC in Broth Dilution, E. coli, RBC +: presence of 1×10^9 human RBC/ml
Protocol: (§1) Peptide variants of D-CONGA (SEQ ID NO: 1) were tested for activity against E. coli, K. pneumoniae, and S. aureus. Minimum Inhibitory Concentrations (MIC) were measured in 96-well plates by broth dilution. Peptides were serially diluted in buffer or in buffer containing 1×10^9 human RBC/ml. Following 1 hr. incubation, bacteria in growth media were added and the plates were incubated overnight at 37° C. Sterilized, wells were identified to determine MIC. Hemolysis was measured by incubating 1×10^8 human RBCs with serially diluted peptide for 30 minutes followed by centrifugation of the cells and measurements of the released hemoglobin in the supernatant by absorbance at 410 nm. The value for 100% hemolysis was established by treatment with the detergent Triton-X100. Toxicity was measured by incubating serially diluted peptide with WI38 human fibroblast cells in the presence of SYTOX Green, a DNA binding dye that reports on cell death by membrane permeabilization. The peptide concentration that gives 50% cytotoxicity by relative SYTOX Green fluorescence, is denoted EC50.
(§2) Antimicrobial peptides and conventional antibiotics were prepared at 5-times the final concentration needed in 0.025% acetic acid. The antibiotics were serially diluted by a factor of 2:3 horizontally across 96-well plates from Corning, 25 μL per well. One column was reserved for controls. For the assays performed in the presence of RBC, type O+ human RBCs at 0 or 2.5×10^9 cells/mL were added in 50 μL aliquots to all wells. Following a 30-minute incubation, 50 μL of TSB, inoculated with 5×10^5 CFU/mL, was added to all wells, and plates were incubated overnight at 37° C. Following overnight incubation at 37° C., the OD600 was measured (values of less than 0.1 were considered sterilized). To assess bacterial growth in the assays with RBC, the OD600 was measured after a second day inoculation with 10 μL of solution from the original plate added to 100 μL of sterile TSB followed by overnight incubation.
(§3) MIC values were reported in μM peptide against gram-negative E. coli (EC), P. aeruginosa (PA), and gram-positive S. aureus (SA). The two columns under each organism are for assays performed in the absence (−) and presence (+) of 1×10^9 human RBC/ml. “>30” means that sterilization was not observed at 30 μM, the highest concentration tested. The column marked “hemolysis” is the fractional hemolysis of 1×10^8 human RBC/ml at 100 μM peptide determined from measurements of serially diluted peptide, starting from 100 μM. The column marked “EC 50” contains the concentration of peptide that kills 50% of WI-38 human fibroblast cells assayed by entry of SYTOX™ Green DNA binding dye.

[7] = system: K. pneumoniae; assay type: cell-based; details: for MIC, K. pneumoniae, 10^9 cells/ml RBC: with 10^9 human RBC/ml
Protocol: as §1, §2, §3

[8] = system: S. aureus; assay type: cell-based; details: for MIC in Broth Dilution, S. Aureus, RBC −: absence of RBC; for MIC in Broth Dilution, S. Aureus, RBC − / MIC in Broth Dilution, S. Aureus, RBC +: Table 3; for MIC, S. aureus, No RBC / MIC, S. aureus, 10^9 cells/ml RBC: Table 2; for MIC in Broth Dilution, S. Aureus, RBC +: presence of 1×10^9 human RBC/ml; for MIC, S. aureus, 10^9 cells/ml RBC: with 10^9 human RBC/ml
Protocol: as §1, §2, §3

[9] = system: human RBCs; assay: Hemolysis of human RBCs; assay type: cell-based
Protocol: as §1
Peptide was serially diluted in PBS starting at a concentration of 100 μM. The final volume of peptide in each well was 50 μL. To each well, 50 μL of RBCs in PBS at 2×10^8 cells/mL was added. As a positive lysis control, 1% triton was used. The mixtures were incubated at 37° C. for 1 hour, after which they were centrifuged at 1000 g for 5 minutes. After centrifugation, 10 μL of supernatant was transferred to 90 μL of DI H2O in a fresh 96-well plate. The absorbance of released hemoglobin at 410 nm was recorded and the fractional hemolysis was calculated based on the 100% and 0% lysis controls.
as §3

[10] = isolate KP (Morici), ATCC #33495
[11] = 50% cytotoxicity by SYTOX Green, Table 2, read-out: EC50, μM (WI-38 Cells)

Compound	MIC ([1]; isolate PA (mucoid))	MIC ([1]; isolate PA (non-mucoid))	MIC [2]	MIC [3]	EC50 [5, 11]	MIC, E. coli, No RBC [6]	MIC, E. coli, 10^9 cells/ml RBC [6]	MIC, K. pneumoniae, 10^9 cells/ml RBC ([7]; Table 2)	MIC in Broth Dilution, S. Aureus, RBC − [8]	MIC, S. aureus, No RBC [8]	MIC in Broth Dilution, S. Aureus, RBC + [8]	MIC, S. aureus, 10^9 cells/ml RBC [8]	Hemolysis at 100 μM [9]	other results
CC1(C)S[C@@H]2[C@H](NC(=O)[C@H](N)c3ccccc3)C(=O)N2[C@H]1C(=O)O [AMP, Ampicillin]	>150 µM	>150 µM	>150 µM	>150 µM	–	–	–	–	–	–	–	–	–	–
CC(C)(O/N=C(\C(=O)N[C@@H]1C(=O)N2C(C(=O)[O-])=C(C[n+]3ccccc3)CS[C@H]12)c1csc(N)n1)C(=O)O [CAZ, Ceftazidime]	115.9 µM (≈ 63.3 µg/mL)	>150 µM	>150 µM	>150 µM	–	–	–	–	–	–	–	–	–	MIC ([4]; isolate KP 2146 (NDM-1)): >150 µM; MIC ([4]; isolate KP (6)): >150 µM; MIC ([4]; isolate KP (46)): >150 µM; MIC ([4]; isolate KP (398)): 132.7 µM (≈ 72.5 µg/mL); MIC ([4]; isolate KP (CRE)): >150 µM; MIC [4, 10]: >150 µM; MIC ([4]; isolate KP (ST258C3)): >150 µM; MIC ([4]; isolate KP (ST258I2)): >150 µM; MIC ([4]; isolate KP (ST396)): >150 µM; MIC ([4]; isolate KP (St258 C2)): >150 µM
CO/N=C(\C(=O)N[C@@H]1C(=O)N2C(C(=O)O)=C(CSc3nc(=O)c(O)nn3C)CS[C@H]12)c1csc(N)n1 [CRO, Ceftriaxone]	137.2 µM (≈ 76.1 µg/mL)	88.45 µM (≈ 49.1 µg/mL)	>150 µM	>150 µM	–	–	–	–	–	–	–	–	–	MIC ([4]; isolate KP 2146 (NDM-1)): >150 µM; MIC ([4]; isolate KP (6)): >150 µM; MIC ([4]; isolate KP (46)): 1.9 µM (≈ 1.05 µg/mL); MIC ([4]; isolate KP (398)): 0.2 µM (≈ 0.111 µg/mL); MIC ([4]; isolate KP (CRE)): 45 µM (≈ 25 µg/mL); MIC [4, 10]: 0.3 µM (≈ 0.166 µg/mL); MIC ([4]; isolate KP (ST258C3)): >150 µM; MIC ([4]; isolate KP (ST258I2)): >150 µM; MIC ([4]; isolate KP (ST396)): 1.9 µM (≈ 1.05 µg/mL); MIC ([4]; isolate KP (St258 C2)): >150 µM
CC(C)C[C@@H](NC(=O)[C@@H](CCCNC(=N)N)NC(=O)[C@@H](CCCNC(=N)N)NC(=O)[C@@H](C)NC(=O)[C@@H](Cc1c[nH]c2ccccc12)NC(=O)[C@@H](CCCNC(=N)N)NC(=O)[C@H](N)CCCNC(=N)N)C(=O)N[C@H](C)C(=O)N[C@H](Cc1ccccc1)C(=O)N[C@H](C)C(=O)N[C@H](Cc1ccccc1)C(=O)N[C@H](CCCNC(=N)N)C(=O)N[C@H](CCCNC(=N)N)C(N)=O [D-CONGA, rrwarrlafafrr (All D), reference compound] (H-[dR][dR][dW][dA][dR][dR][dL][dA][dF][dA][dF][dR][dR]-NH2)	–	–	–	–	110 µM	1.0 µM (≈ 1.76 µg/mL)	0.8 μM	3.8 μM	5.7 µM (≈ 10 µg/mL)	5.7 µM (≈ 10 µg/mL)	6.3 µM	6.3 μM	0.06	–
CC(C)C[C@@H](NC(=O)[C@@H](CCC(N)=O)NC(=O)[C@@H](CCCNC(=N)N)NC(=O)[C@@H](CCCNC(=N)N)NC(=O)[C@@H](C)NC(=O)[C@@H](Cc1c[nH]c2ccccc12)NC(=O)[C@@H](CCCNC(=N)N)NC(=O)[C@H](N)CCCNC(=N)N)C(=O)N[C@H](C)C(=O)N[C@H](Cc1ccccc1)C(=O)N[C@H](C)C(=O)N[C@H](Cc1ccccc1)C(=O)N[C@H](CCCNC(=N)N)C(=O)N[C@H](CCCNC(=N)N)C(N)=O [D-CONGA-Q7, rrwarrqlafafrr (All D)] (H-[dR][dR][dW][dA][dR][dR][dQ][dL][dA][dF][dA][dF][dR][dR]-NH2)	–	–	–	–	418 µM	1 µM (≈ 1.89 µg/mL)	1.7 μM	1.5 μM	4.2 µM (≈ 7.93 µg/mL)	4.2 µM (≈ 7.93 µg/mL)	3.6 µM	3.6 μM	0.07	EC50 against WI-38 cells relative to that of D-CONGA [5]: four times higher; Toxicity against WI-38 cells (in words) [5]: lower cytotoxicity; MIC in Broth Dilution, E. coli, RBC − [6]: 1 µM (≈ 1.89 µg/mL); MIC in Broth Dilution, E. coli, RBC + [6]: 1.7 µM; MIC ([4]; clinical isolates): 1.8 µM (≈ 3.4 µg/mL)
CC(C)C[C@@H](NC(=O)CCNC(=O)[C@@H](CCCNC(=N)N)NC(=O)[C@@H](CCCNC(=N)N)NC(=O)[C@@H](C)NC(=O)[C@@H](Cc1c[nH]c2ccccc12)NC(=O)[C@@H](CCCNC(=N)N)NC(=O)[C@H](N)CCCNC(=N)N)C(=O)N[C@H](C)C(=O)N[C@H](Cc1ccccc1)C(=O)N[C@H](C)C(=O)N[C@H](Cc1ccccc1)C(=O)N[C@H](CCCNC(=N)N)C(=O)N[C@H](CCCNC(=N)N)C(N)=O [D-CONGA-βa7, rrwarr-βa-lafafrr (All D)] (H-[dR][dR][dW][dA][dR][dR][βAla][dL][dA][dF][dA][dF][dR][dR]-NH2)	–	–	–	–	–	–	–	–	–	–	–	–	0.02	Toxicity against WI-38 cells (in words) [5]: least toxic of the variants
rrwa (nor r, nor r)lafafrr [D-CONGA-NorR]	–	–	–	–	66 µM	1.9 µM	2.4 μM	12 μM	7.6 µM	7.6 µM	17.2 µM	17.2 μM	–	EC50 ([5]; kills 50% of WI-38 cells, SYTOX Green entry, Table 3, read-out: EC50, μM (WI-38)): 66 µM; MIC in Broth Dilution, E. coli, RBC − [6]: 1.9 µM; MIC in Broth Dilution, E. coli, RBC + [6]: 2.4 µM; MIC in Broth Dilution, K. Pneumoniae, RBC − ([7]; absence of RBC, Table 3): 13.3 µM; MIC, K. pneumoniae, No RBC ([7]; no RBC, Table 2): 13 µM; MIC in Broth Dilution, K. Pneumoniae, RBC + ([7]; presence of 1×10^9 human RBC/ml, Table 3): 11.8 µM
